Test results as given in US20210100247A1, “HARMFUL ORGANISM CONTROL METHOD AND HARMFUL ORGANISM CONTROL COMPOSITION” (priority 2018, published 2021).
Several values for one entry are separate records, joined by “and”; a condition that tells them apart may be missing. Identical values can stand only once.

System: Tetranychus urticae
Assay: whole plant or invertebrate
Settings: for Corrected Adult Insect Mortality Rate Measured Value: adults, 3 days after spraying; for Effectiveness Measured Value: next generation survivors, 10 days after spraying
Protocol: Effecacy Confirmation Test on Tetranychus urticae
Eight or ten adult female Tetranychus urticae mites were inoculated on the kidney bean leaves placed in petri dishes on the day before treating with the chemical solutions.
A flowable agent containing the compound A was diluted with a solution obtained by diluting Rabiden 3S 5,000 times in water to prepare a chemical solution A containing the compound A in which the concentration of the compound A is twice the concentration shown in Tables 1 to 4.
A preparation product containing the compound B was diluted with a solution obtained by diluting Rabiden 3S 5,000 times in water to prepare a chemical solution B containing the compound B in which the concentration of the compound B is twice the concentration shown in Tables 1 to 4.
Test number a: Tebufenpyrad: Pyranica EW (manufactured by Nippon Soda Co., Ltd.) Test numbers b and h: Hexythiazox: Nissolan wettable powder (manufactured by Nippon Soda Co., Ltd.) Test number c: Fenpyroximate: Danitron flowable (manufactured by Nippon Pesticides Co., Ltd.) Test number d: Propargite: Omite wettable powder (manufactured by Nippon Pesticides Co., Ltd.) Test number e: Tolfenpyrad: Hachi-Hachi flowable (manufactured by OAT Agrio) Test number f: Abamectin: Agrimec (manufactured by Syngenta Japan) Test number g: Etoxazole: Baroque flowable (manufactured by Kyoyu Agri co., Ltd.) Test number i: Thiodicarb: Lavin wettable powder 75 (manufactured by Bayer Crop Science) Test number j: Spinosad: Spinoace granule wettable powder (Kumiai Chemical Industry Co., Ltd.) Test number k: Isoxathion: Carphos emulsion (manufactured by Nippon Soda Co., Ltd.) Test number l: Acetamiprid: Mospilan water-soluble agent (manufactured by Nippon Soda Co., Ltd.) Test number m: Fipronil: Prince flowable (manufactured by BASF) Test number n: Tralomethrin: Scout flowable agent (manufactured by Nippon Soda Co., Ltd.) Test number o: BT agent (live spore of Bacillus thuringiensis and crystal toxin produced): Zentari granule wettable powder (manufactured by Kitako Chemical Industry Co., Ltd.) Test number p: Buprofezin: Applaud flowable (manufactured by Nippon Pesticides Co., Ltd.) Test number q: Cyromazine: Triggered liquid (manufactured by Syngenta Japan) Test number r: Tebufenozide: Romdan Flowable (manufactured by Nippon Soda Co., Ltd.) Test number s: Flubendiamide: Phoenix granule wettable powder (Nippon Agricultural Co., Ltd.) Test number t: Pyridalyl: pleo flowable (manufactured by Kyoto Agri) Test number u: Lufenuron: Match emulsion (manufactured by Syngenta Japan) Test number v: Flonicamid: Ulala DF (made by Ishihara Bioscience) Test number w: Chlorfenapyr: Kotetsu Flowable (Nippon Pesticides Co., Ltd.) Test number x: Indoxacarb: Tornado flowable (made by Kumiai Chemical Industry Co., Ltd.) Test number y: Diafenthiuron: Gamba wettable powder (manufactured by Syngenta Japan) Test number z: Thiocyclam: Ebisect wettable powder (manufactured by Mitsui Chemicals Agro) Test number aa: Emamectin-benzoate: Affirm emulsion (Syndienta Japan) Test number ab: Pyridaben: Sanmite wettable powder (manufactured by Nissan Chemical Co., Ltd.)
A mixed solution obtained by mixing equal amounts of the chemical solution A and the chemical solution B was sprayed onto a petri dish containing kidney bean leaves inoculated with Tetranychus urticae mites at an amount of 2 mg per cm^2 using a rotary spray tower (AB mixed-component area).
The chemical solution A and the chemical solution B were each diluted 2-fold with a solution obtained by diluting Labiden 3S 5000 times in water to obtain a chemical solution A′ and a chemical solution B′.
The chemical solution A′ was sprayed onto another petri dish containing kidney bean leaves inoculated with Tetranychus urticae mites at an amount of 2 mg per cm^2 using a rotary spray tower (A single-component area).

[1] = Tetranychus urticae, in Phaseolus vulgaris, 240 h, read-out: Effectiveness Measured Value

`CC1(C)[C@H](C(=O)O[C@H](C#N)c2cccc(Oc3ccccc3)c2)[C@@H]1C(Br)C(Br)(Br)Br` (stereo partly drawn) [tralomethrin] showed a pest or weed control at 9.3 µg/mL [1] of 1%.

`C#CCOS(=O)OC1CCCCC1Oc1ccc(C(C)(C)C)cc1` (stereo not drawn) [propargite] showed a pest or weed control at 40 µg/mL [1] of 18%.

With `CCOP(=S)(OCC)Oc1cc(-c2ccccc2)on1` [isoxathion] the pest or weed control at 500 µg/mL [1] was 50%.

`O=C(NC(=O)c1c(F)cccc1F)Nc1cc(Cl)c(OC(F)(F)C(F)C(F)(F)F)cc1Cl` (stereo not drawn) [lufenuron] showed a pest or weed control at 100 µg/mL [1] of 14%.

`CCc1nn(C)c(C(=O)NCc2ccc(Oc3ccc(C)cc3)cc2)c1Cl` [tolfenpyrad] showed a pest or weed control at 150 µg/mL [1] of 4%.

`CCOc1cc(C(C)(C)C)ccc1C1COC(c2c(F)cccc2F)=N1` (stereo not drawn) [etoxazole] gave a pest or weed control at 1.6 µg/mL [1] of 85%.

With `C[C@@H]1[C@@H](c2ccc(Cl)cc2)SC(=O)N1C(=O)NC1CCCCC1` [hexythiazox] the pest or weed control at 1.6 µg/mL [1] was 42% and the pest or weed control at 12.5 µg/mL [1] was 90%.

With `FC(F)(F)c1ccc(OCCCOc2c(Cl)cc(OCC=C(Cl)Cl)cc2Cl)nc1` [pyridalyl] the pest or weed control at 100 µg/mL [1] was 11%.

For spinosad, the “Corrected Adult Insect Mortality Rate Measured Value” (single component 40 ppm) was 0% and the “Effectiveness Measured Value” (single component 40 ppm) was 0%.

Work on `N#Cc1nn(-c2c(Cl)cc(C(F)(F)F)cc2Cl)c(N)c1[S+]([O-])C(F)(F)F` (stereo not drawn) [fipronil] yielded a pest or weed control at 22 µg/mL [1] of 2%.

Work on `CC(C)N1C(=O)N(c2ccccc2)CS/C1=N\C(C)(C)C` [buprofezin] yielded a pest or weed control at 200 µg/mL [1] of 17%.

In the case of `C/C(=N\C#N)N(C)Cc1ccc(Cl)nc1` [acetamiprid], the pest or weed control at 100 µg/mL [1] is reported as 7%.

For emamectin-benzoate, the “Corrected Adult Insect Mortality Rate Measured Value” (single component 0.02 ppm) was 40% and the “Effectiveness Measured Value” (single component 0.02 ppm) was 17%.

For `CS/C(C)=N\OC(=O)N(C)SN(C)C(=O)O/N=C(\C)SC` [thiodicarb], the pest or weed control at 750 µg/mL [1] was 0%.

`CCc1ccc(C(=O)NN(C(=O)c2cc(C)cc(C)c2)C(C)(C)C)cc1` [tebufenozide] was tested, and the pest or weed control at 200 µg/mL [1] was 10%.

`Cc1cc(C(F)(C(F)(F)F)C(F)(F)F)ccc1NC(=O)c1cccc(I)c1C(=O)NC(C)(C)CS(C)(=O)=O` [flubendiamide] gave a pest or weed control at 100 µg/mL [1] of 3%.

`CC(C)c1cc(Oc2ccccc2)cc(C(C)C)c1NC(=S)NC(C)(C)C` [diafenthiuron] showed a pest or weed control at 25 µg/mL [1] of 7%.

Work on `CCOCn1c(-c2ccc(Cl)cc2)c(C#N)c(Br)c1C(F)(F)F` [chlorfenapyr] yielded a pest or weed control at 50 µg/mL [1] of 46%.

`COC(=O)N(C(=O)N1CO[C@@]2(C(=O)OC)Cc3cc(Cl)ccc3C2=N1)c1ccc(OC(F)(F)F)cc1` [indoxacarb] was tested, and the “Corrected Adult Insect Mortality Rate Measured Value” (single component 50 ppm) was 0% and the “Effectiveness Measured Value” (single component 50 ppm) was 0%.

For abamectin, the “Corrected Adult Insect Mortality Rate Measured Value” (single component 0.017 ppm) was 0% and the “Effectiveness Measured Value” (single component 0.017 ppm) was 11%.

Molecule `Nc1nc(N)nc(NC2CC2)n1` [cyromazine] has a pest or weed control at 87 µg/mL [1] of 8%.

`CCc1nn(C)c(C(=O)NCc2ccc(C(C)(C)C)cc2)c1Cl` [tebufenpyrad] gave a pest or weed control at 100 µg/mL [1] of 64%.

In the case of `CCCOc1cc(C(F)(F)F)ccc1O[C@H]1C[C@H]2CCC[C@@H](C1)N2Oc1ccc(C(F)(F)F)cn1` [acynonapyr, 3-endo-[2-propoxy-4-(trifluoromethyl)phenoxy]-9-[5-(trifluoromethyl)-2-pyridyloxy]-9-azabicyclo[3.3.1] nonan], the “Effectiveness Measured Value” (single component 2.0 ppm) is reported as 49% and 51% and 60% and 68% and 46%.

`CC(C)(C)c1ccc(CSc2cnn(C(C)(C)C)c(=O)c2Cl)cc1` [pyridaben] gave a pest or weed control at 200 µg/mL [1] of 0%.

`Cc1nn(C)c(Oc2ccccc2)c1C=NOCc1ccc(C(=O)OC(C)(C)C)cc1` [fenpyroximate] gave a pest or weed control at 50 µg/mL [1] of 28%.

With `CN(C)C1CSSSC1` [thiocyclam] the pest or weed control at 500 µg/mL [1] was 18%.

In the case of `N#CCNC(=O)c1cnccc1C(F)(F)F` [flonicamid], the “Corrected Adult Insect Mortality Rate Measured Value” (single component 100 ppm) is reported as 0% and the “Effectiveness Measured Value” (single component 100 ppm) is reported as 3%.
